# Results taken from article PMC5218480 (PLoS ONE, 2017).
# Test system: MV-4-11 cells
# Assay: Gene expression microarray analysis (Affymetrix PrimeView) and GSEA
# Format: cell-based, human
# Parameters: RFU PODN (11730768_x_at) / Fold change /veh PODN (11730768_x_at) / RFU LINC00158 (11744669_a_at) / Fold change /veh LINC00158 (11744669_a_at) / RFU DUSP10 (11751237_a_at) / Fold change /veh DUSP10 (11751237_a_at) / RFU ID3 (11757404_x_at) / Fold change /veh ID3 (11757404_x_at) / RFU PLEKHG5 (11737974_s_at) / Fold change /veh PLEKHG5 (11737974_s_at) / RFU LRRC4B (11730491_at) / Fold change /veh LRRC4B (11730491_at) / RFU GIMAP4 (11747438_a_at) / Fold change /veh GIMAP4 (11747438_a_at) / RFU KRT8 (11758183_x_at) / Fold change /veh KRT8 (11758183_x_at) / RFU CNN1 (11734310_a_at) / Fold change /veh CNN1 (11734310_a_at) / RFU VPS37D (11726825_at) / Fold change /veh VPS37D (11726825_at) / RFU C10orf10 (11716522_x_at) / Fold change /veh C10orf10 (11716522_x_at) / RFU KIR2DL2 /// KIR2DL4 /// KIR2DL5A /// KIR2DL5B /// KIR2DS1 /// KIR2DS2 /// KIR2DS3 /// KIR2DS4 /// KIR3DL3 /// KIR3DL3 /// KIR3DS1 (11738374_at) / Fold change /veh KIR2DL2 /// KIR2DL4 /// KIR2DL5A /// KIR2DL5B /// KIR2DS1 /// KIR2DS2 /// KIR2DS3 /// KIR2DS4 /// KIR3DL3 /// KIR3DL3 /// KIR3DS1 (11738374_at) / RFU C1QL1 (11718748_at) / Fold change /veh C1QL1 (11718748_at) / RFU TMPRSS4 (11747572_a_at) / Fold change /veh TMPRSS4 (11747572_a_at) / RFU HAMP (11756126_x_at) / Fold change /veh HAMP (11756126_x_at) / RFU RNFT2 (11725882_a_at) / Fold change /veh RNFT2 (11725882_a_at) / RFU NR4A2 (11747474_a_at) / Fold change /veh NR4A2 (11747474_a_at) / RFU ABCC12 (11746883_a_at) / Fold change /veh ABCC12 (11746883_a_at) / RFU TMEM136 (11760407_x_at) / Fold change /veh TMEM136 (11760407_x_at) / RFU CLDN22 /// WWC2 (11732394_at) / Fold change /veh CLDN22 /// WWC2 (11732394_at) / RFU HLA-DPB1 (11760878_x_at) / Fold change /veh HLA-DPB1 (11760878_x_at) / RFU SPINT1 (11716480_a_at) / Fold change /veh SPINT1 (11716480_a_at) / RFU GAP43 (11754022_s_at) / Fold change /veh GAP43 (11754022_s_at) / RFU A4GNT (11735810_at) / Fold change /veh A4GNT (11735810_at) / RFU PRB3 (11715151_x_at) / Fold change /veh PRB3 (11715151_x_at) / RFU TUBB4B (11761932_at) / Fold change /veh TUBB4B (11761932_at) / RFU CAPN14 (11732068_a_at) / Fold change /veh CAPN14 (11732068_a_at) / RFU TMCC2 (11721928_a_at) / Fold change /veh TMCC2 (11721928_a_at) / RFU IRGQ (11745062_a_at) / Fold change /veh IRGQ (11745062_a_at) / RFU FAM174B (11720279_a_at) / Fold change /veh FAM174B (11720279_a_at) / RFU TMPRSS4 (11748680_a_at) / Fold change /veh TMPRSS4 (11748680_a_at) / RFU FAM212B (11763350_a_at) / Fold change /veh FAM212B (11763350_a_at) / RFU PLEKHG5 (11743358_a_at) / Fold change /veh PLEKHG5 (11743358_a_at) / RFU ZSCAN30 (11745921_a_at) / Fold change /veh ZSCAN30 (11745921_a_at) / RFU CMKLR1 (11741424_a_at) / Fold change /veh CMKLR1 (11741424_a_at) / RFU LOC101060620 /// MAPK8IP1 (11723275_at) / Fold change /veh LOC101060620 /// MAPK8IP1 (11723275_at) / RFU SPTSSB (11747773_x_at) / Fold change /veh SPTSSB (11747773_x_at) / RFU PRSS12 (11739890_at) / Fold change /veh PRSS12 (11739890_at) / RFU BIN1 (11741810_x_at) / Fold change /veh BIN1 (11741810_x_at) / RFU WNT11 (11732464_a_at) / Fold change /veh WNT11 (11732464_a_at) / RFU C10orf10 (11716521_a_at) / Fold change /veh C10orf10 (11716521_a_at) / RFU C5orf56 (11738089_at) / Fold change /veh C5orf56 (11738089_at) / RFU CYB561 (11721691_x_at) / Fold change /veh CYB561 (11721691_x_at) / RFU ANKRD19P (11752326_a_at) / Fold change /veh ANKRD19P (11752326_a_at) / RFU OR2T12 /// OR2T33 /// OR2T8 (11738714_s_at) / Fold change /veh OR2T12 /// OR2T33 /// OR2T8 (11738714_s_at) / RFU VCAN (11748164_a_at) / Fold change /veh VCAN (11748164_a_at) / RFU JSRP1 (11732532_at) / Fold change /veh JSRP1 (11732532_at) / RFU KRTAP10-11 (11738290_x_at) / Fold change /veh KRTAP10-11 (11738290_x_at) / RFU MYO3A (11730013_a_at) / Fold change /veh MYO3A (11730013_a_at) / RFU EBF3 (11725865_a_at) / Fold change /veh EBF3 (11725865_a_at) / RFU CAMK2N1 (11719241_x_at) / Fold change /veh CAMK2N1 (11719241_x_at) / RFU C5orf56 (11738088_a_at) / Fold change /veh C5orf56 (11738088_a_at) / RFU OLFML3 (11715873_a_at) / Fold change /veh OLFML3 (11715873_a_at) / RFU LOC100653217 /// NTM (11731650_a_at) / Fold change /veh LOC100653217 /// NTM (11731650_a_at) / RFU MAPK11 (11762145_a_at) / Fold change /veh MAPK11 (11762145_a_at) / RFU FIZ1 (11724087_x_at) / Fold change /veh FIZ1 (11724087_x_at) / RFU OASL (11726364_x_at) / Fold change /veh OASL (11726364_x_at) / RFU SOX15 (11748057_x_at) / Fold change /veh SOX15 (11748057_x_at) / RFU CD79A (11719716_a_at) / Fold change /veh CD79A (11719716_a_at) / RFU HIST1H1D (11736915_at) / Fold change /veh HIST1H1D (11736915_at) / RFU CASKIN2 (11723855_a_at) / Fold change /veh CASKIN2 (11723855_a_at) / RFU LOC730098 (11760151_x_at) / Fold change /veh LOC730098 (11760151_x_at) / RFU OR4N2 (11742367_at) / Fold change /veh OR4N2 (11742367_at) / RFU PRRT2 (11749266_a_at) / Fold change /veh PRRT2 (11749266_a_at) / RFU SNX32 (11753110_a_at) / Fold change /veh SNX32 (11753110_a_at) / RFU CDHR5 (11726645_a_at) / Fold change /veh CDHR5 (11726645_a_at) / RFU RCAN1 (11760418_a_at) / Fold change /veh RCAN1 (11760418_a_at) / RFU FAM167A (11723789_a_at) / Fold change /veh FAM167A (11723789_a_at) / RFU FAM26E (11764081_at) / Fold change /veh FAM26E (11764081_at) / RFU ISYNA1 (11749810_s_at) / Fold change /veh ISYNA1 (11749810_s_at) / RFU ACY1 (11761880_at) / Fold change /veh ACY1 (11761880_at) / RFU 11764098_at / Fold change /veh 11764098_at / RFU SAMD14 (11745864_x_at) / Fold change /veh SAMD14 (11745864_x_at) / RFU NPB (11741838_a_at) / Fold change /veh NPB (11741838_a_at) / RFU TMPRSS6 (11731388_a_at) / Fold change /veh TMPRSS6 (11731388_a_at) / RFU KRTAP10-2 (11738614_at) / Fold change /veh KRTAP10-2 (11738614_at) / RFU ARHGAP8 /// PRR5-ARHGAP8 (11727945_x_at) / Fold change /veh ARHGAP8 /// PRR5-ARHGAP8 (11727945_x_at) / RFU KRTAP5-7 /// NADSYN1 (11734609_at) / Fold change /veh KRTAP5-7 /// NADSYN1 (11734609_at) / RFU RASL12 (11751679_a_at) / Fold change /veh RASL12 (11751679_a_at) / RFU CDKN2B (11736163_a_at) / Fold change /veh CDKN2B (11736163_a_at) / RFU PRF1 (11729649_at) / Fold change /veh PRF1 (11729649_at) / RFU, ZNF638 /// ZNF638-IT1 / Fold change vs veh, ZNF638 /// ZNF638-IT1 / RFU, PANK3 / Fold change vs veh, PANK3 / RFU, SH3YL1 / Fold change vs veh, SH3YL1 / RFU, ZEB2 / Fold change vs veh, ZEB2 / RFU, NRIP1 / Fold change vs veh, NRIP1 / RFU, PTTG1IP / Fold change vs veh, PTTG1IP / RFU, CAPN2 / Fold change vs veh, CAPN2 / RFU, MED14 / Fold change vs veh, MED14 / RFU, SNORA58 / Fold change vs veh, SNORA58 / RFU, C1orf63 / Fold change vs veh, C1orf63 / RFU, LRRFIP1 / Fold change vs veh, LRRFIP1 / RFU, NDUFAF7 / Fold change vs veh, NDUFAF7 / RFU, SLC12A2 / Fold change vs veh, SLC12A2 / RFU, IBTK / Fold change vs veh, IBTK / RFU, ESF1 / Fold change vs veh, ESF1 / Fold change vs veh, TMEM50B / RFU, TAOK1 / Fold change vs veh, TAOK1 / RFU, ACBD3 / Fold change vs veh, ACBD3 / RFU, TMA16 / Fold change vs veh, TMA16 / RFU, RWDD3 / Fold change vs veh, RWDD3 / RFU, BCAT1 / Fold change vs veh, BCAT1 / RFU, EDEM3 / Fold change vs veh, EDEM3 / RFU, TMEM33 / Fold change vs veh, TMEM33 / RFU, WDR75 / Fold change vs veh, WDR75 / RFU, AHCTF1 / Fold change vs veh, AHCTF1 / RFU, TFRC / Fold change vs veh, TFRC / RFU, ZDHHC17 / Fold change vs veh, ZDHHC17 / RFU, NOM1 / Fold change vs veh, NOM1 / RFU, ARL8B / Fold change vs veh, ARL8B / RFU, ZBTB11 / Fold change vs veh, ZBTB11 / RFU, TAMM41 / Fold change vs veh, TAMM41 / RFU, KIAA1704 /// LOC100996395 / Fold change vs veh, KIAA1704 /// LOC100996395 / RFU, ING1 / Fold change vs veh, ING1 / RFU, TRMT61B / Fold change vs veh, TRMT61B / RFU, FUBP3 / Fold change vs veh, FUBP3 / RFU, TP53 / Fold change vs veh, TP53 / RFU, TNKS2 / Fold change vs veh, TNKS2 / RFU, ZFP14 / Fold change vs veh, ZFP14 / RFU, ACTR2 / Fold change vs veh, ACTR2 / RFU, PPP3R1 / Fold change vs veh, PPP3R1 / RFU, PIK3R1 / Fold change vs veh, PIK3R1 / RFU, HNRNPA1 / Fold change vs veh, HNRNPA1 / RFU, RNF170 / Fold change vs veh, RNF170 / RFU, ZNF28 / Fold change vs veh, ZNF28 / RFU, RNGTT / Fold change vs veh, RNGTT / RFU, OGT / Fold change vs veh, OGT / RFU, BRD1 / Fold change vs veh, BRD1 / RFU, MARS / Fold change vs veh, MARS / RFU, ZNF655 / Fold change vs veh, ZNF655 / RFU, FAHD1 / Fold change vs veh, FAHD1 / RFU, BDP1 / Fold change vs veh, BDP1 / RFU, LRRCC1 / Fold change vs veh, LRRCC1 / RFU, ARID1A / Fold change vs veh, ARID1A / RFU, ZNF146 / Fold change vs veh, ZNF146 / RFU, ZNF330 / Fold change vs veh, ZNF330 / RFU, GPN3 / Fold change vs veh, GPN3 / RFU, C9orf123 / Fold change vs veh, C9orf123 / RFU, N4BP2L2 / Fold change vs veh, N4BP2L2 / RFU, ARFIP1 / Fold change vs veh, ARFIP1 / RFU, FAM179B / Fold change vs veh, FAM179B / RFU, BCL10 / Fold change vs veh, BCL10 / RFU, UHRF1BP1L / Fold change vs veh, UHRF1BP1L / RFU, BET1 / Fold change vs veh, BET1 / RFU, CNOT2 / Fold change vs veh, CNOT2 / RFU, ZNF268 / Fold change vs veh, ZNF268 / Fold change vs veh, ZNF507 / RFU, DGCR2 / Fold change vs veh, DGCR2 / RFU, WDSUB1 / Fold change vs veh, WDSUB1 / Fold change vs veh, HSP90B1 /// MIR3652 / RFU, ADSS / Fold change vs veh, ADSS / RFU, GK / Fold change vs veh, GK / RFU, ZNF148 / Fold change vs veh, ZNF148 / RFU, TAF9 / Fold change vs veh, TAF9 / RFU, SLC1A5 / Fold change vs veh, SLC1A5 / RFU, SLMO2 / Fold change vs veh, SLMO2 / RFU, ABCC4 / Fold change vs veh, ABCC4 / RFU, LOC101060439 /// RAP1B / Fold change vs veh, LOC101060439 /// RAP1B / RFU, RFX7 / Fold change vs veh, RFX7 / RFU, GTPBP10 / Fold change vs veh, GTPBP10 / RFU, CNEP1R1 / Fold change vs veh, CNEP1R1 / RFU, BIVM-ERCC5 /// ERCC5 / Fold change vs veh, BIVM-ERCC5 /// ERCC5 / RFU, ILF3 / Fold change vs veh, ILF3 / RFU 11762660_at / Fold change /veh 11762660_at / RFU VCAN (11757783_s_at) / Fold change /veh VCAN (11757783_s_at) / RFU DDX43 (11728927_at) / Fold change /veh DDX43 (11728927_at) / RFU KRT8 (11758188_x_at) / Fold change /veh KRT8 (11758188_x_at) / RFU NKD1 (11759106_at) / Fold change /veh NKD1 (11759106_at) / RFU SRD5A1 (11742802_a_at) / Fold change /veh SRD5A1 (11742802_a_at) / RFU TPSAB1 /// TPSB2 (11721975_s_at) / Fold change /veh TPSAB1 /// TPSB2 (11721975_s_at) / RFU GSTM3 (11746129_a_at) / Fold change /veh GSTM3 (11746129_a_at) / RFU IL23R (11737362_x_at) / Fold change /veh IL23R (11737362_x_at) / RFU TMEM51 (11727254_a_at) / Fold change /veh TMEM51 (11727254_a_at) / RFU PIWIL2 (11732686_x_at) / Fold change /veh PIWIL2 (11732686_x_at) / RFU ORM1 (11744905_x_at) / Fold change /veh ORM1 (11744905_x_at) / RFU CCDC152 (11743942_at) / Fold change /veh CCDC152 (11743942_at) / RFU ECM1 (11717891_a_at) / Fold change /veh ECM1 (11717891_a_at) / RFU IL23R (11748794_a_at) / Fold change /veh IL23R (11748794_a_at) / RFU TNFAIP8L3 (11732012_x_at) / Fold change /veh TNFAIP8L3 (11732012_x_at) / RFU MBOAT4 (11741988_at) / Fold change /veh MBOAT4 (11741988_at) / RFU 11764193_at / Fold change /veh 11764193_at / RFU TMEM53 (11763286_at) / Fold change /veh TMEM53 (11763286_at) / RFU MAGEB2 (11727129_at) / Fold change /veh MAGEB2 (11727129_at) / RFU TMEM200A (11744735_a_at) / Fold change /veh TMEM200A (11744735_a_at) / RFU CCDC152 (11751479_a_at) / Fold change /veh CCDC152 (11751479_a_at) / RFU FAM211A (11726209_a_at) / Fold change /veh FAM211A (11726209_a_at) / RFU RGS16 (11746705_a_at) / Fold change /veh RGS16 (11746705_a_at) / RFU VCAN (11755009_s_at) / Fold change /veh VCAN (11755009_s_at) / RFU RHOB (11743442_s_at) / Fold change /veh RHOB (11743442_s_at) / RFU RGS16 (11720943_a_at) / Fold change /veh RGS16 (11720943_a_at) / RFU RGS16 (11720944_at) / Fold change /veh RGS16 (11720944_at) / RFU, VPS4B / Fold change vs veh, VPS4B / RFU, CREB1 / Fold change vs veh, CREB1 / RFU, DNAJC13 / Fold change vs veh, DNAJC13 / RFU, GNAQ / Fold change vs veh, GNAQ / RFU, CDK5R1 / Fold change vs veh, CDK5R1 / RFU, ZRANB3 / Fold change vs veh, ZRANB3 / RFU, CUL4A / Fold change vs veh, CUL4A / RFU, CCNY / Fold change vs veh, CCNY / RFU, UFL1 / Fold change vs veh, UFL1 / RFU, COG3 / Fold change vs veh, COG3 / RFU, DIAPH2 / Fold change vs veh, DIAPH2 / RFU, SKA2 / Fold change vs veh, SKA2 / RFU, AFF3 / Fold change vs veh, AFF3 / RFU, LMF1 / Fold change vs veh, LMF1 / RFU, IPO11 / Fold change vs veh, IPO11 / RFU, DFFB / Fold change vs veh, DFFB / RFU, FOXP1 / Fold change vs veh, FOXP1 / RFU, CARD8 / Fold change vs veh, CARD8 / RFU, STRN3 / Fold change vs veh, STRN3 / RFU, ADK / Fold change vs veh, ADK / RFU, RASSF2 / Fold change vs veh, RASSF2 / RFU, WIPF1 / Fold change vs veh, WIPF1 / RFU, LARP1B / Fold change vs veh, LARP1B / RFU, RASA1 / Fold change vs veh, RASA1 / RFU, RB1 / Fold change vs veh, RB1 / RFU, PPFIA1 / Fold change vs veh, PPFIA1 / RFU, MAT2A / Fold change vs veh, MAT2A / RFU, CCT5 / Fold change vs veh, CCT5 / RFU, WDR92 / Fold change vs veh, WDR92 / RFU, CUX1 / Fold change vs veh, CUX1 / RFU, TTC7A / Fold change vs veh, TTC7A / RFU, TMEM135 / Fold change vs veh, TMEM135 / RFU, DEPTOR / Fold change vs veh, DEPTOR / RFU, CPM / Fold change vs veh, CPM / RFU, DNAJB6 / Fold change vs veh, DNAJB6 / RFU, CACNA2D3 / Fold change vs veh, CACNA2D3 / RFU, DTX4 / Fold change vs veh, DTX4 / RFU, TFCP2 / Fold change vs veh, TFCP2 / RFU, GMCL1 /// GMCL1P1 / Fold change vs veh, GMCL1 /// GMCL1P1 / RFU, AEBP2 / Fold change vs veh, AEBP2 / RFU, SNHG1 /// SNORD22 /// SNORD25 /// SNORD26 /// SNORD27 /// SNORD28 /// SNORD29 /// SNORD31 / Fold change vs veh, SNHG1 /// SNORD22 /// SNORD25 /// SNORD26 /// SNORD27 /// SNORD28 /// SNORD29 /// SNORD31 / Fold change (Aza/veh), C12orf56 (ProbeSet 11735607_a_at) / Fold change (ACY-1035/veh), C12orf56 (ProbeSet 11735607_a_at) / Fold change (Aza/veh), FGFR1OP (ProbeSet 11751329_s_at) / Fold change (ACY-1035/veh), FGFR1OP (ProbeSet 11751329_s_at) / Fold change (Aza/veh), VPS36 (ProbeSet 11739960_a_at) / Fold change (ACY-1035/veh), VPS36 (ProbeSet 11739960_a_at) / RFU SYPL1 (11715823_x_at) / Fold change /veh SYPL1 (11715823_x_at) / RFU IGFBP7 (11715501_s_at) / Fold change /veh IGFBP7 (11715501_s_at) / RFU REEP3 (11722064_at) / Fold change /veh REEP3 (11722064_at) / RFU IGLL1 (11728026_x_at) / Fold change /veh IGLL1 (11728026_x_at): dose or concentration left out as unconfirmed
# Conditions: MV-4-11 cells, 48 hours
compound,measurement,value
Nc1ncn([C@@H]2O[C@H](CO)[C@@H](O)[C@H]2O)c(=O)n1 [azacitidine],RFU FIZ1 (11724087_x_at),32.14 RFU
